What all share (assay type): functional
One test has as its system Pseudomonas aeruginosa. The experiment in a line: Antibacterial activity against Pseudomonas aeruginosa ATCC 27853 assessed as growth inhibition by broth microdilution method.
Another test has as its system Staphylococcus aureus. As to the kind of experiment: Antibacterial activity against Staphylococcus aureus ATCC 25923 assessed as growth inhibition by broth microdilution method.
The subject of the next test is Enterococcus faecalis. As to the kind of experiment: Antibacterial activity against Enterococcus faecalis ATCC 29212 assessed as growth inhibition by broth microdilution method. A general note: Broth dilution looks for growth in wells or tubes with falling amounts of substance.
A further test concerns Aspergillus niger. As to the kind of experiment: Antifungal activity against Aspergillus niger ATCC 1015 assessed as growth inhibition by broth microdilution method.
In the next test the test system is Escherichia coli. As to the kind of experiment: Antibacterial activity against Escherichia coli ATCC 25922 assessed as growth inhibition by broth microdilution method.
The test system of another test is Candida albicans. As to the kind of experiment: Antifungal activity against Candida albicans ATCC 10231 assessed as growth inhibition by broth microdilution method.

Consider 18 compounds from ChEMBL document CHEMBL3046776, “Antibacterial and antifungal screening of newly synthesized benzimidazole-clubbed chalcone derivatives” (2013).

What is called MIC is the lowest concentration found to suppress growth.

Regarding `COc1ccc(/C=C/C(=O)c2ccc(NC(=O)CSc3nc4ccccc4[nH]3)cc2)cc1OC`, the MIC in the test with Pseudomonas aeruginosa was 125 µg/mL; in the test with Staphylococcus aureus, 62.5 µg/mL; with Enterococcus faecalis, 250 µg/mL; in the test on Aspergillus niger, 62.5 µg/mL; with Escherichia coli it was 31.2 µg/mL; in the test with Candida albicans, 125 µg/mL.

Regarding `O=C(CSc1nc2ccccc2[nH]1)Nc1ccc(C(=O)/C=C/c2ccc([N+](=O)[O-])cc2)cc1`, the MIC with Pseudomonas aeruginosa was found to be 125 µg/mL; with Staphylococcus aureus, 62.5 µg/mL; with Enterococcus faecalis, 125 µg/mL; with Aspergillus niger, 62.5 µg/mL; with Escherichia coli it was 62.5 µg/mL; in the test with Candida albicans, 125 µg/mL.

With `CN(C)c1ccc(/C=C/C(=O)c2ccc(NC(=O)CSc3nc4ccccc4[nH]3)cc2)cc1`, the MIC with Pseudomonas aeruginosa came out at 125 µg/mL; in the test with Staphylococcus aureus, 125 µg/mL; in the test on Enterococcus faecalis it was 125 µg/mL; in the test on Aspergillus niger it was 125 µg/mL; in the test on Escherichia coli, 31.2 µg/mL; with Candida albicans it was 125 µg/mL.

Consider `O=C(CSc1nc2ccccc2[nH]1)Nc1ccc(C(=O)/C=C/c2ccc(Br)cc2)cc1`, for which the MIC in the test on Pseudomonas aeruginosa was determined as 125 µg/mL; with Staphylococcus aureus it was 125 µg/mL; with Enterococcus faecalis, 125 µg/mL; with Aspergillus niger, 125 µg/mL; in the test on Escherichia coli, 31.2 µg/mL; with Candida albicans, 250 µg/mL.

On to `O=C(CSc1nc2ccccc2[nH]1)Nc1ccc(C(=O)/C=C/c2cccc(Cl)c2)cc1`, for which the MIC came to 125 µg/mL in the test with Pseudomonas aeruginosa; 31.2 µg/mL in the test on Staphylococcus aureus; 125 µg/mL in the test on Enterococcus faecalis; 125 µg/mL in the test with Aspergillus niger; 62.5 µg/mL in the test on Escherichia coli; 250 µg/mL with Candida albicans.

Turning to `O=C(CSc1nc2ccccc2[nH]1)Nc1ccc(C(=O)/C=C/c2cccc(Br)c2)cc1`, the MIC with Pseudomonas aeruginosa worked out at 125 µg/mL; with Staphylococcus aureus, 31.2 µg/mL; with Enterococcus faecalis, 250 µg/mL; with Aspergillus niger, 250 µg/mL; with Escherichia coli it was 62.5 µg/mL; in the test with Candida albicans it was 250 µg/mL.

Consider `COc1cc(/C=C/C(=O)c2ccc(NC(=O)CSc3nc4ccccc4[nH]3)cc2)cc(OC)c1OC`, for which the MIC is 125 µg/mL in the test on Pseudomonas aeruginosa; 31.2 µg/mL with Staphylococcus aureus; 250 µg/mL with Enterococcus faecalis; 250 µg/mL in the test on Aspergillus niger; 31.2 µg/mL with Escherichia coli; 125 µg/mL in the test on Candida albicans.

For the compound `O=C(CSc1nc2ccccc2[nH]1)Nc1ccc(C(=O)/C=C/c2ccccc2[N+](=O)[O-])cc1`, the MIC in the test on Pseudomonas aeruginosa came to 250 µg/mL; in the test with Staphylococcus aureus, 31.2 µg/mL; with Enterococcus faecalis, 250 µg/mL; with Aspergillus niger, 250 µg/mL; in the test with Escherichia coli, 31.2 µg/mL; in the test with Candida albicans, 250 µg/mL.

Regarding `COc1ccc(OC)c(/C=C/C(=O)c2ccc(NC(=O)CSc3nc4ccccc4[nH]3)cc2)c1`, the MIC in the test with Pseudomonas aeruginosa amounted to 125 µg/mL; in the test with Staphylococcus aureus, 31.2 µg/mL; in the test on Enterococcus faecalis it was 125 µg/mL; with Aspergillus niger, 125 µg/mL; in the test on Escherichia coli, 31.2 µg/mL; with Candida albicans, 250 µg/mL.

As to `COc1cc(/C=C/C(=O)c2ccc(NC(=O)CSc3nc4ccccc4[nH]3)cc2)ccc1O`, the MIC amounted to 250 µg/mL with Pseudomonas aeruginosa; 15.6 µg/mL in the test with Staphylococcus aureus; 250 µg/mL with Enterococcus faecalis; 125 µg/mL in the test with Aspergillus niger; 62.5 µg/mL with Escherichia coli; 62.5 µg/mL with Candida albicans.

Regarding `O=C(CSc1nc2ccccc2[nH]1)Nc1ccc(C(=O)/C=C/c2c(O)ccc3ccccc23)cc1`, the MIC turned out to be 62.5 µg/mL in the test on Pseudomonas aeruginosa; 62.5 µg/mL in the test with Staphylococcus aureus; 250 µg/mL in the test with Enterococcus faecalis; 62.5 µg/mL in the test with Aspergillus niger; 62.5 µg/mL with Escherichia coli; 125 µg/mL in the test with Candida albicans.

Take `O=C(CSc1nc2ccccc2[nH]1)Nc1ccc(C(=O)/C=C/c2ccccc2O)cc1`: the MIC with Pseudomonas aeruginosa came to 31.2 µg/mL; in the test with Staphylococcus aureus it was 62.5 µg/mL; in the test with Enterococcus faecalis, 125 µg/mL; in the test on Aspergillus niger, 125 µg/mL; in the test with Escherichia coli it was 31.2 µg/mL; with Candida albicans it was 62.5 µg/mL.

With `COc1ccc(/C=C/C(=O)c2ccc(NC(=O)CSc3nc4ccccc4[nH]3)cc2)cc1`, the MIC in the test with Pseudomonas aeruginosa is 250 µg/mL; in the test on Staphylococcus aureus it was 31.2 µg/mL; in the test on Enterococcus faecalis, 250 µg/mL; in the test with Aspergillus niger, 125 µg/mL; in the test with Escherichia coli, 62.5 µg/mL; with Candida albicans, 125 µg/mL.

With `O=C(CSc1nc2ccccc2[nH]1)Nc1ccc(C(=O)/C=C/c2ccc(O)cc2)cc1`, the MIC in the test with Pseudomonas aeruginosa is 250 µg/mL; with Staphylococcus aureus it was 31.2 µg/mL; in the test on Enterococcus faecalis, 125 µg/mL; in the test with Aspergillus niger it was 125 µg/mL; in the test on Escherichia coli, 62.5 µg/mL; in the test with Candida albicans, 125 µg/mL.

`O=C(CSc1nc2ccccc2[nH]1)Nc1ccc(C(=O)/C=C/c2ccccc2)cc1`: the MIC came to 250 µg/mL in the test on Pseudomonas aeruginosa; 250 µg/mL in the test with Staphylococcus aureus; 250 µg/mL in the test on Enterococcus faecalis; 125 µg/mL with Aspergillus niger; 125 µg/mL with Escherichia coli; 250 µg/mL with Candida albicans.

On to `O=C(CSc1nc2ccccc2[nH]1)Nc1ccc(C(=O)/C=C/c2ccc(Cl)cc2)cc1`, for which the MIC with Pseudomonas aeruginosa was 125 µg/mL; with Staphylococcus aureus, 125 µg/mL; in the test with Enterococcus faecalis, 250 µg/mL; in the test with Aspergillus niger it was 125 µg/mL; with Escherichia coli, 62.5 µg/mL; in the test with Candida albicans, 250 µg/mL.

In the case of `O=C(O)c1cn(C2CC2)c2cc(N3CCNCC3)c(F)cc2c1=O` [CIPROFLOXACIN], the MIC with Pseudomonas aeruginosa is 125 µg/mL; with Staphylococcus aureus, 62.5 µg/mL; in the test on Enterococcus faecalis, 125 µg/mL; in the test with Escherichia coli, 125 µg/mL.

Take `OC(Cn1cncn1)(Cn1cncn1)c1ccc(F)cc1F` [FLUCONAZOLE]: the MIC was determined as 62.5 µg/mL in the test on Aspergillus niger and 125 µg/mL in the test with Candida albicans.
